The values that follow come from BindingDB's records for doi:10.1021/jm00117a021 (Syntex Research, 1988).

Assay [1] addresses Adenosylhomocysteinase (Oryctolagus cuniculus). The assay is described as follows: Inhibition of S-adenosyl-homocysteine (AdoHcy)hydrolase from rabbit erythrocytes.
The target is the same in assay [2]. The assay is described as above. This is another data set of the same source.

In general, IC50 refers to the concentration at which inhibition is half-maximal. A low value points to greater potency. On to `Nc1ncnc2c1ncn2C1C(O)C(O)C(CO)C1O` (configuration not stated), for which, in assay [1], the midpoint of inhibition, the IC50, lay at 28 µM. With `Nc1ncnc2c1ncn2[C@@H](C=O)O[C@@H](C=O)CO` [Adenosine dialdehyde], 40 nM corresponded to half-maximal inhibition in assay [2] (IC50).
